From patent US20140031309A1, “Beta-L-N4 Hydroxycytosine Deoxynucleosides and their use as Pharmaceutical Agents in the Prophylaxis or Therapy of Viral Diseases” (MAX-DELBRUECK-CENTRUM FUER MOLEKULARE MEDIZIN, priority 2004, published 2014)
pEC50, pIC50: −log10 of the molar value. Several values for one entry are separate records, joined by “and”; a condition that tells them apart may be missing. Equal entries are not always repeated. Where two headings read alike, the source gives them in different places.

Legend:
HBV [1] = test: Inhibition of HBV-replication in HepG2 2.2.15 cells (extracellular HBV DNA, PCR); assay type: cell-based, hepatitis B virus; details: read-out: EC50, concentration required for 50% reduction of HBV DNA in the medium of the cells
Protocol: The antiviral efficacy of the compounds of the invention was investigated on HepG2 2.2.15 cells, a human hepatoblastoma cell line which has the replication-competent HBV genome stably integrated therein and produces infectious progeny viruses in a productive manner (Sells et al., Proc Natl Acad Sci USA 1987, 84: 1005-1009).
The above cells were cultured under standardized conditions as specified by Korba and Gerin, and the amount of extracellular viral DNA was determined (Korba et al., Antiviral Res 1992, 19: 55-70).
Following passaging, the HepG2 2.2.15 cells were seeded at a density of about 60% in 12-well plates and cultured to confluence in 10% FBS Dulbecco MEM. Thereafter, the medium was changed to 2% FBS, and the cells were cultured for another 24 hours.
After another change of medium, the cells were treated with varying concentrations of compounds according to the invention. Every 24 hours the compounds were re-added together with the medium. On the 6th day of treatment, the cell supernatants were centrifuged off and stored at −20° C. until analysis of the HBV DNA was effected.
Following treatment of the culture supernatants with proteinase K, the extracellular viral DNA was amplified by means of PCR using the following primers (forward: 5′-CTCCAGTTCAGGAACAGTAAACCC-3′(SEQ ID NO. 1); reverse: 5′-TTGTGAGCTCAGAAAGGCCTTGTAAGTTGGCG-3′(SEQ ID NO. 2). The PCR products were separated on 1% agarose, stained with ethidium bromide and quantified using a Fluor-S™ Multimager (Biorad).
For calibration of the PCR reaction, serial dilutions of the pUC19 HBV and pTHBV plasmids with known genome equivalents (GE) were used, resulting in a lower detection limit of about 10^3 GE and a linearity between 10^3 and 10^5 GE.

HepG2-cells = test: Cytotoxicity, inhibition of proliferation of HepG2 cells; assay type: cell-based, human; details: for CD50, concentration producing 50% inhibition of cell proliferation: two days incubation; for antiproliferative activity: in words
Protocol: (§1) To this end, established cells of a human myeloid leukemia (HL-60) in RPMI medium, and the above-mentioned HepG2 cells in Dulbecco MEM, respectively, were incubated for two days using varying concentrations of compounds, and the proliferation rate of the cells was subsequently determined. The data were used to determine the concentration of compounds resulting in 50% inhibition of proliferation (CD50).

HL-60 cells = test: Cytotoxicity, inhibition of proliferation of HL-60 cells; assay type: cell-based, human; details: for CD50, concentration producing 50% inhibition of cell proliferation: two days incubation; for antiproliferative activity: in words
Protocol: as §1

HIV = test: Inhibition of HIV replication; assay type: cell-based; details: read-out: EC50 against HIV replication
HBV DNA polymerase = biological target: T1, HBV DNA polymerase (Hepatitis B virus genotype D subtype ayw, UniProt P03156); test: Inhibition of endogenous HBV DNA polymerase by nucleoside triphosphates; assay type: biochemical; details: virus particles from patient serum, 3H-dCTP, 1 h 37° C., read-out: IC50, 50% inhibition of the HBV DNA polymerase activity
T1 construct: the endogenous HBV DNA polymerase activity; from tissue; host or cells: serum of patients with untreated hepatitis B virus infection; virus particles purified by ultracentrifugation and lysed
Protocol: To determine the endogenous HBV DNA polymerase activity, about 100 ml of serum from patients with untreated hepatitis B virus infections from Charité, Berlin, (>10^7 HBV particles/ml), was centrifuged at 3000 rpm. Virus particles of the cleared serum were sedimented in a Beckman SW28 rotor at 25,000 rpm, 60 min. The virus pellet was suspended in 7 ml of TKM buffer (50 mM Tris-HCl, pH 7.5, 50 mM KCl, 5 mM MgCl2), layered over a step gradient of 10 ml each of 0.3 M, 0.6 M, 0.9 M saccharose in TKM buffer and centrifuged at 25,000 rpm for 20 hours.
The purified virus pellet was suspended in 250 μl TKM buffer, lysed by ultrasound, divided in aliquots and frozen at −80° C. (Davies et al., Antiviral Res 1996, 30: 133-145).
The HBV DNA polymerase assay contained in 30 μl about 2-4×10^8 purified virus particles (lysed beforehand additionally in 6% β-mercaptoethanol, 10% Igepal for 15 min at room temperature), 42 mM Tris-HCl, (pH 7.5), 34 mM MgCl2, 340 mM KCl, 22 mM β-mer-captoethanol, 0.4% Igepal, 70 μM TTP, dATP, dGTP and 1 μCi ^3HdCTP (=0.7 μM dCTP) (Matthes et al., Antimicrob Agents & Chemother 1991, 35: 1254-1257) and varying concentrations of β-L-N4-hydroxycytosine nucleoside triphosphates as inhibitors.
Following a one-hour incubation at 37° C., 20 μl of the assay volume was placed on paper filter, washed 5 times with 5% trichloroacetic acid and 0.1% Na pyrophosphate, and the ^3H-dCMP incorporated in the HBV DNA was subsequently measured in a Liquid Scintillation Counter.
Using the concentration-dependent inhibition curves of HBV DNA synthesis, the concentration of β-L-N4-hydroxycytosine nucleoside triphosphates resulting in 50% inhibition of the HBV DNA polymerase activity was determined.

HBV [2] = details: treatment of HBV infections; cited from earlier work
[3] = HepG2 2.2.15 cells, 6 days incubation, extracellular HBV DNA

T1 sequence (P03156 whole entry): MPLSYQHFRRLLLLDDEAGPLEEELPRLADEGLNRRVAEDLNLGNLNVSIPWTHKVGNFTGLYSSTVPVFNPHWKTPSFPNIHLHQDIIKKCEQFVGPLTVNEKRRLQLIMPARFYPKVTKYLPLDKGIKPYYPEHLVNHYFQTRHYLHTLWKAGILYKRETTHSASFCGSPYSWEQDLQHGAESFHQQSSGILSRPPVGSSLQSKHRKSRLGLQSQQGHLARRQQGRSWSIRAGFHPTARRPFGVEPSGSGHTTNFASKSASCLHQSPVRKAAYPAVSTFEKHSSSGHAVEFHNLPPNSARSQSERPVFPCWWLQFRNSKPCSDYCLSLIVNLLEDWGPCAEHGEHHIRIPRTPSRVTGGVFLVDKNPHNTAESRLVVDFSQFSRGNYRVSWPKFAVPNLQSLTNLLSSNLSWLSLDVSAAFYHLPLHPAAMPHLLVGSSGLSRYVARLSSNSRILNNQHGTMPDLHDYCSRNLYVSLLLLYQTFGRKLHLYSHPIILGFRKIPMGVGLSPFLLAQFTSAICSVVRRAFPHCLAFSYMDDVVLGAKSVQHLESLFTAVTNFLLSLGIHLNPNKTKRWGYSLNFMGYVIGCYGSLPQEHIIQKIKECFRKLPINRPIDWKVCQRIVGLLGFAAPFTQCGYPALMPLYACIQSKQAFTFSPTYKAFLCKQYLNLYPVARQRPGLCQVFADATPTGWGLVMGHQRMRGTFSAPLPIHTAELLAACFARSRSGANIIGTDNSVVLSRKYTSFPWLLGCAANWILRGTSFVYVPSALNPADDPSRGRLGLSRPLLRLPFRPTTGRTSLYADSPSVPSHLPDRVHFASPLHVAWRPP

Compound | CD50, concentration producing 50% inhibition of cell proliferation (HepG2-cells) | CD50, concentration producing 50% inhibition of cell proliferation (HL-60 cells) | pEC50 (HBV [1]; [3]) | other results
Nc1ccn([C@@H]2CS[C@H](CO)O2)c(=O)n1 [3TC (lamivudine), β-L-2′,3′-dideoxy-3′-thiacytidine, reference compound] | 1900 µM | 2000 µM | – | pEC50 (HBV [1]; Hepatitis B virus, HepG2 2.2.15, 144 h): 7.00
O=c1nc(NO)ccn1[C@H]1CS[C@@H](CO)O1 [Hy3TC, β-L-2′,3′-dideoxy-3′-thia-N4-hydroxycytidine] | 1230 µM | 1450 µM | 6.30 | pEC50 (HIV): < 4.60
O=c1nc(NO)c(F)cn1[C@H]1CS[C@@H](CO)O1 [HyFTC, β-L-2′,3′-dideoxy-3′-thia-5-fluoro-N4-hydroxycytidine] | 975 µM | 1100 µM | 6.52 | –
Nc1nc(=O)n([C@@H]2C[C@@H](O)[C@H](CO)O2)cc1F [L-FCdR, β-L-5-fluorodeoxycytidine, reference compound] | – | – | 5.92 | –
O=c1nc(NO)ccn1[C@@H]1C[C@@H](F)[C@H](CO)O1 [L-FHyCdR, β-L-3′-fluoro-2′,3′-dideoxy-N4-hydroxycytidine] | 820 µM | 4400 µM | – | –
O=c1nc(NO)ccn1[C@@H]1C[C@@H](O)[C@H](CO)O1 [L-HyCdR, β-L-N4-hydroxydeoxycytidine] | 545 µM | 460 µM | 5.52 | –
O=c1nc(NO)c(F)cn1[C@@H]1C[C@@H](O)[C@H](CO)O1 [L-HyFCdR, β-L-5-fluoro-N4-hydroxydeoxycytidine] | 920 µM | 1370 µM | 5.35 | –
O=c1nc(NO)ccn1[C@H]1O[C@@H](CO)C=C1F [L-HyFddeC, β-L-2′,3′-didehydro-2′,3′-dideoxy-2′-fluoro-N4-hydroxycytidine] | 1370 µM | 1130 µM | > 7.00 | antiproliferative activity (HepG2-cells): lost the antiproliferative activity; antiproliferative activity (HL-60 cells): lost the antiproliferative activity
Cc1cn([C@@H]2C[C@@H](O)[C@H](CO)O2)c(=O)nc1NO [L-HyMetCdR, β-L-5-methyl-N4-hydroxydeoxycytidine] | 490 µM | 600 µM | – | –
O=c1nc(NO)ccn1[C@@H]1CC[C@H](CO)O1 [L-HyddC, β-L-2′,3′-dideoxy-N4-hydroxycytidine] | 2250 µM | 1600 µM | – | antiproliferative activity (HepG2-cells): lost the antiproliferative activity; antiproliferative activity (HL-60 cells): lost the antiproliferative activity
O=c1nc(NO)c(F)cn1[C@@H]1CC[C@H](CO)O1 [L-HyddFC, β-L-2′,3′-dideoxy-5-fluoro-N4-hydroxycytidine] | 1580 µM | 1860 µM | 6.46 | –
O=c1nc(NO)ccn1[C@@H]1C=C[C@H](CO)O1 [L-HyddeC, β-L-2′,3′-didehydro-2′,3′-dideoxy-N4-hydroxycytidine] | >5000 µM | >3500 µM | 7.30 | –
O=c1nc(NO)c(F)cn1[C@@H]1C=C[C@H](CO)O1 [L-HyddeFC, β-L-2′,3′-didehydro-2′,3′-dideoxy-5-fluoro-N4-hydroxycytidine] | – | – | > 7.00 | antiproliferative activity (HepG2-cells): lost the antiproliferative activity; antiproliferative activity (HL-60 cells): lost the antiproliferative activity
[N-]=[N+]=N[C@@H]1C[C@@H](n2ccc(NO)nc2=O)O[C@H]1CO [L-N3HyCdR, β-L-3′-azido-2′,3′-dideoxy-N4-hydroxycytidine] | 1160 µM | 2000 µM | – | –
Cc1cn([C@@H]2C[C@@H](O)[C@H](CO)O2)c(=O)[nH]c1=O [L-TdR, β-L-thymidine, reference compound] | – | – | – | pEC50 (HBV [1]; Hepatitis B virus, 144 h, HepG2 2.2.15 cells, 6 days incubation, extracellular HBV DNA): 6.52
Nc1ccn([C@@H]2CC[C@H](CO)O2)c(=O)n1 [L-ddC, β-L-2′,3′-dideoxycytidine, reference compound] | – | – | 6.60 | –
O=c1nc(NO)ccn1[C@@H]1CS[C@H](COP(=O)(O)OP(=O)(O)OP(=O)(O)O)O1 [Triphosphate of L-Hy3TC] | – | – | – | pIC50 (HBV DNA polymerase): 6.19 to 6.82 and 6.19
O=c1nc(NO)ccn1[C@@H]1C[C@@H](O)[C@H](COP(=O)(O)OP(=O)(O)OP(=O)(O)O)O1 [Triphosphate of L-HyCdR] | – | – | – | pIC50 (HBV DNA polymerase): 5.22
Cc1cn([C@@H]2C[C@@H](O)[C@H](COP(=O)(O)OP(=O)(O)OP(=O)(O)O)O2)c(=O)nc1NO [Triphosphate of L-HyMetCdR] | – | – | – | pIC50 (HBV DNA polymerase): 5.40
O=c1nc(NO)ccn1[C@@H]1CC[C@H](COP(=O)(O)OP(=O)(O)OP(=O)(O)O)O1 [Triphosphate of L-HyddC] | – | – | – | pIC50 (HBV DNA polymerase): 6.19 to 6.82 and 6.26
O=c1nc(NO)ccn1[C@@H]1C=C[C@H](COP(=O)(O)OP(=O)(O)OP(=O)(O)O)O1 [Triphosphate of L-HyddeC] | – | – | – | pIC50 (HBV DNA polymerase): 6.19 to 6.82 and 6.55
α-interferon | – | – | – | share of the patients in whom it is effective (HBV [2]): about 33%
